Results published in paper PMC4970648, “Studies on 16α-Hydroxylation of Steroid Molecules and Regioselective Binding Mode in Homology-Modeled Cytochrome P450-2C11” (International Journal of Medicinal Chemistry, 2010).

The molecules below were run against [3H]PROG 16α-hydroxylating activity by male rat liver microsomes (CYP2C11) (Rattus norvegicus, UniProt P08683) (assay: Inhibition of [3H]progesterone 16α-hydroxylation by adult male rat liver microsomes). Conditions: 40% inhibition not reached at 10 μM of unlabeled steroid; male rat liver microsomes.
[3H]PROG 16α-hydroxylating activity by male rat liver microsomes (CYP2C11), sequence (P08683 whole entry): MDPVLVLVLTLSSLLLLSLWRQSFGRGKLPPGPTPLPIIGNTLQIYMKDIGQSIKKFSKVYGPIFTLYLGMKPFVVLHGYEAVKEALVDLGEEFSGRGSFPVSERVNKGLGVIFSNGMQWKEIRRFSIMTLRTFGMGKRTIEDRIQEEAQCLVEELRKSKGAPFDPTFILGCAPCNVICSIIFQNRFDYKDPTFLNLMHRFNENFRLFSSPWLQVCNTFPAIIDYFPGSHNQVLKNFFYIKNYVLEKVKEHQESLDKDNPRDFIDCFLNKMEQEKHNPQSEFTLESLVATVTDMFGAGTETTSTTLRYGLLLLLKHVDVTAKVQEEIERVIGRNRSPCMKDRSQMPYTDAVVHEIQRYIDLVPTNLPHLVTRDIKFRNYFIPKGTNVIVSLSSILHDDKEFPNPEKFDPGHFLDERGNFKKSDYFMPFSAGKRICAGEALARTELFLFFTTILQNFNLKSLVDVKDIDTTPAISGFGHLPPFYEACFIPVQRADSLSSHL
Method: Approximately 95-day-old male Wistar rats, castrated on the 70th day after birth, were used. The liver microsomes were prepared as previously described. The experiments were performed according to instrumental guidelines for the care and use of laboratory animals.
The metabolism by rat liver microsomes were examined, according to our previously described procedure. Briefly, the microsomal suspension (400–600 μg of protein/2.2 mL, total volume of the reaction mixture) was preincubated with [3H]PROG (20 nM) under the absence or presence of an unlabeled steroid (0.01–10 μM) at 36°C for 30 min. […] After the incubation, two identical samples were mixed and extracted with toluene. The toluene-extractable [3H]PROG metabolites (more than 90%) were isolated by various paper chromatographic systems and then identified by recrysallization method. Other miscellaneous procedures are described in our previous papers.
In the case of `C[C@@]12CCC[C@H]1[C@@H]1CC[C@@H]3CCCC[C@]3(C)[C@H]1CC2` [compound 47, 5β-Androstane], the “[3H]PROG16α-hydroxylation (IC40), given as bound in μM” value is reported as greater than 10 µM. In the case of `C[C@]12CCCC[C@@H]1CC[C@@H]1[C@@H]2CC[C@]2(C)[C@@H](O)CC[C@@H]12` [compound 52, 5α-Androstan-17β-ol], the “[3H]PROG16α-hydroxylation (IC40), given as bound in μM” value is reported as greater than 10 µM. `C[C@]12CC[C@@H](O)C[C@@H]1CC[C@@H]1[C@@H]2CC[C@]2(C)[C@@H](OS(=O)(=O)O)CC[C@@H]12` [compound 64, 5α-Androstan-3α,17β-diol-17-sulfate] was tested, and the “[3H]PROG16α-hydroxylation (IC40), given as bound in μM” value was greater than 10 µM.

Same assay, conditions: molar concentration of unlabeled steroid causing 40% inhibition; [3H]PROG 20 nM; unlabeled steroid 0.01–10 μM; male rat liver microsomes
In the case of `C[C@@]12CCC[C@H]1[C@@H]1CC[C@H]3C[C@H](O)CC[C@]3(C)[C@H]1CC2` [compound 48, 5α-Androstan-3α-ol], the “[3H]PROG16α-hydroxylation (IC40)” value is reported as 1030 nM. `C[C@@]12CCC[C@H]1[C@@H]1CC[C@H]3C[C@@H](O)CC[C@]3(C)[C@H]1CC2` [compound 49, 5α-Androstan-3β-ol] was tested, and the “[3H]PROG16α-hydroxylation (IC40)” value was 650 nM. In the case of `C[C@@]12CCC[C@H]1[C@@H]1CC[C@@H]3C[C@H](O)CC[C@]3(C)[C@H]1CC2` [compound 50, 5β-Androstan-3α-ol], the “[3H]PROG16α-hydroxylation (IC40)” value is reported as 510 nM. For `C[C@@]12CCC[C@H]1[C@@H]1CC[C@@H]3C[C@@H](O)CC[C@]3(C)[C@H]1CC2` [compound 51, 5β-Androstan-3β-ol], the “[3H]PROG16α-hydroxylation (IC40)” value was 160 nM. In the case of `C[C@]12CCCC[C@H]1CC[C@@H]1[C@@H]2CC[C@]2(C)[C@@H](O)CC[C@@H]12` [compound 53, 5β-Androstan-17β-ol], the “[3H]PROG16α-hydroxylation (IC40)” value is reported as 365 nM. In the case of `C[C@]12CCC(=O)C[C@@H]1CC[C@@H]1[C@@H]2CC[C@]2(C)C(=O)CC[C@@H]12` [compound 54, 5α-Androstan-3,17-dione], the “[3H]PROG16α-hydroxylation (IC40)” value is reported as 650 nM. In the case of `C[C@]12CCC(=O)C[C@H]1CC[C@@H]1[C@@H]2CC[C@]2(C)C(=O)CC[C@@H]12` [compound 55, 5β-Androstan-3,17-dione], the “[3H]PROG16α-hydroxylation (IC40)” value is reported as 480 nM. With `C[C@]12CC[C@@H](O)C[C@@H]1CC[C@@H]1[C@@H]2CC[C@]2(C)[C@@H](O)CC[C@@H]12` [compound 62, 5α-Androstan-3α,17β-diol] the “[3H]PROG16α-hydroxylation (IC40)” value was 125 nM. With `CC(=O)O[C@H]1CC[C@H]2[C@@H]3CC[C@H]4C[C@H](O)CC[C@]4(C)[C@H]3CC[C@]12C` [compound 63, 5α-Androstan-3α,17β-diol-17-acetate] the “[3H]PROG16α-hydroxylation (IC40)” value was 300 nM. In the case of `C[C@]12CC[C@H](O)C[C@@H]1CC[C@@H]1[C@@H]2CC[C@]2(C)[C@@H](O)CC[C@@H]12` [compound 65, 5α-Androstan-3β,17β-diol], the “[3H]PROG16α-hydroxylation (IC40)” value is reported as 1110 nM. In the case of `C[C@]12CC[C@@H](O)C[C@H]1CC[C@@H]1[C@@H]2CC[C@]2(C)[C@@H](O)CC[C@@H]12` [compound 66, 5β-Androstan-3 α,17 β -diol], the “[3H]PROG16α-hydroxylation (IC40)” value is reported as 69 nM. In the case of `C[C@]12CC[C@@H](O)C[C@H]1CC[C@@H]1[C@@H]2CC[C@]2(C)[C@@H](C(=O)O)CC[C@@H]12` [compound 67, 5β-Androstan-3α-ol-17β-carboxylic acid], the “[3H]PROG16α-hydroxylation (IC40)” value is reported as 360 nM. `COC(=O)[C@@H]1C[C@@H](O)C[C@H]2CC[C@H]3[C@@H]4CCC[C@@]4(C)CC[C@@H]3[C@]21C` [compound 68, 5β-Androstan-3α-ol-1β-carboxylic acid methyl ester] was tested, and the “[3H]PROG16α-hydroxylation (IC40)” value was 43 nM. For `C[C@]12CC[C@H](O)C[C@H]1CC[C@@H]1[C@@H]2CC[C@]2(C)[C@@H](O)CC[C@@H]12` [compound 69, 5β-Androstan-3β,17β-diol], the “[3H]PROG16α-hydroxylation (IC40)” value was 320 nM.
